Legend:
UGT1A9 = target: T1, UGT1A9 (Homo sapiens, UniProt O60656); assay: Reaction phenotyping with recombinant human UGT enzymes: UGT1A9; format: in vitro ADME; details: rUGT1A9 0.25 mg protein/mL, 10 μmol/L, 60 minutes, n = 2
T1 construct: purchased BD Biosciences; host or cells: baculovirus-infected insect cells
T1 sequence (O60656 26-530): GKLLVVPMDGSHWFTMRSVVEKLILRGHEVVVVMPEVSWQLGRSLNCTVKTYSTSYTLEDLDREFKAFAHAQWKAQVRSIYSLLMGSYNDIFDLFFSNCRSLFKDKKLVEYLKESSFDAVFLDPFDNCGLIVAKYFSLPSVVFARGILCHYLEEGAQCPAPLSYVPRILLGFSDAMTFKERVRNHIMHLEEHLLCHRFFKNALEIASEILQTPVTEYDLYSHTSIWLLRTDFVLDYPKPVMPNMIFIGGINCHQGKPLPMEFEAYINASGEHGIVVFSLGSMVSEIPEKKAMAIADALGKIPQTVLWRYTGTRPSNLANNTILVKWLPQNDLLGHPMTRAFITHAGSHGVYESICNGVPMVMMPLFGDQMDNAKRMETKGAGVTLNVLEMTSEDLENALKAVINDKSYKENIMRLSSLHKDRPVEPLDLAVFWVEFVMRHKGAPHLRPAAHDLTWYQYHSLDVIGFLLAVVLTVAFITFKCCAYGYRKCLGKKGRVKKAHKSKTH
Procedure: Ataluren at 10 μmol/L, was incubated (n = 2) with recombinant human uridine diphosphate glucuronosyltransferase (rUGT) enzymes: rUGTs 1A1, 1A3, 1A4, 1A6, 1A7, 1A8, 1A9, 1A10, 2B4, 2B7, 2B15, and 2B17 at 0.25 mg protein/mL. Incubations were conducted in duplicate at 37°C. The incubation mixture (0.2 mL, final volume with 1% methanol) consisted of Tris‐HCl buffer (100 mmol/L, pH 7.7 at 37°C), MgCl2 (10 mmol/L), EDTA (1 mmol/L), saccharic acid 1,4‐lactone (0.1 mmol/L), and UDPGA (8 mmol/L). […] Samples were subjected to centrifugation (920 g for 10 minutes at 10°C) and the supernatant fractions were analyzed by LC‐MS/MS to quantify the formation of ataluren‐O‐1β‐acyl glucuronide and loss of ataluren. […] The ataluren acyl glucuronide formation rate after 60 minutes incubation was calculated using the amount of metabolite formed (pmol) divided by the protein amount in the incubation sample (0.05 mg) and the incubation time (60 minutes).
Quantification of ataluren loss and ataluren‐O‐1β‐acyl glucuronide formation was carried out with an LC‐MS/MS system, which consisted of two Shimadzu LC‐10ADvp pumps, a SPD10‐AVP UV/Vis detector, a Shimadzu SILHTA autosampler, a Shimadzu DGU‐14A degasser, and a Sciex API 4000 QTRAP mass spectrometer equipped with a Turbo Ionspray ionization source that operated in positive ionization mode. […]

CYP2D6 = target: T2, CYP2D6 (Homo sapiens, UniProt P10635); assay: CYP inhibition in pooled human liver microsomes: CYP2D6; format: in vitro ADME; details: CYP2D6, HLM, estimated, concentrations up to 400 μmol/L
T2 construct: tissue XenoTech LLC, Celsis-In Vitro Technologies, or Tissue Transformation Technologies; host or cells: pooled human liver microsomes
Procedure: The final concentration of each probe substrate was near the experimentally determined Km value for the indicated enzyme. Ataluren or prototypical CYP inhibitors (positive controls) was incubated (n = 3) with probe substrates and HLM in 100 mmol/L phosphate buffer (pH 7.4) in a total volume of approximately 0.25 mL, and the reactions were initiated by the addition of 1 mmol/L NADPH at 37°C. The reactions were carried out using previously established conditions to ensure linearity with respect to protein concentration and incubation time (Table S1). Incubations were stopped with the addition of ice‐cold acetonitrile. Metabolite formation in incubations with test compound and control inhibitors was assessed with LC‐MS/MS methods for each of the reaction products as described in Table S2. […] After 7 minutes incubation at 37°C, the reaction was stopped by the addition of ice‐cold acetonitrile, followed by membrane plate filtration. The filtrates were used for LC‐MS/MS analysis. […] IC50 values were determined by nonlinear regression with GraphPad Prism 5 using the following four‐parameter sigmoidal‐logistic IC50 equation: Fit=background+range-background/[1+I/IC50^slope]
Where, I is the inhibitor concentration, and background was set to 0 and range to 100, as percent of control values are utilized. K i was determined by nonlinear regression with GraphPad Prism 5 using best fit model.

T2 sequence (P10635 whole entry): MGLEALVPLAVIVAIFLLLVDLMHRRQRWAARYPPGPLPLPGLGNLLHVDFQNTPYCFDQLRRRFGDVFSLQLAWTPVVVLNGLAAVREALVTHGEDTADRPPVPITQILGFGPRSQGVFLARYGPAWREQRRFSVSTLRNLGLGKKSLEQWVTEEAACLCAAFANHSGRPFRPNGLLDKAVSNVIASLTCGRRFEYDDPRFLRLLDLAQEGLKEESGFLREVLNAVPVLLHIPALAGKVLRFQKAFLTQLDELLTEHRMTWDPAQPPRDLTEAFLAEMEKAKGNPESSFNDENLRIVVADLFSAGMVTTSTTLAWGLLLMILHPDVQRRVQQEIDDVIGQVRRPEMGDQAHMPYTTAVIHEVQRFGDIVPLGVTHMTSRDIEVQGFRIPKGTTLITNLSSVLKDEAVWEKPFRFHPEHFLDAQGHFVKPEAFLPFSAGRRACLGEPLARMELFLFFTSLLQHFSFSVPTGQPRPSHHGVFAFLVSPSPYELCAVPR

O=C(O)c1cccc(-c2noc(-c3ccccc3F)n2)c1 [ataluren, Ataluren]
ataluren loss (UGT1A9): 32.7%
IC50 (CYP2D6): > 400 µM

— article PMC7083565, “In vitro metabolism, reaction phenotyping, enzyme kinetics, CYP inhibition and induction potential of ataluren” (Pharmacology Research & Perspectives, 2020)
